Experimental data published in paper PMC4917279 (Journal of Medicinal Chemistry, 2016).

Test system: KYSE-150 esophageal xenograft
Type: in vivo
Details: (S)-4 500 mg/kg po qd; doxorubicin 10 mg/kg iv once at day 4

With COc1cccc2c1C(=O)c1c(O)c3c(c(O)c1C2=O)C[C@@](O)(C(=O)CO)C[C@@H]3O[C@H]1C[C@H](N)[C@H](O)[C@H](C)O1 [Doxorubicin, doxorubicin] the “Antitumor efficacy relative to vehicle control” value was “no significant antitumor efficacy”.
